{
  "source": "paper PMC3740339",
  "about": "(Neurotoxicity research, 2009)",
  "target": "tau (htau40), synthetic filaments (Homo sapiens, UniProt P10636)",
  "sequence (P10636 1-441 isoform P10636-8)": "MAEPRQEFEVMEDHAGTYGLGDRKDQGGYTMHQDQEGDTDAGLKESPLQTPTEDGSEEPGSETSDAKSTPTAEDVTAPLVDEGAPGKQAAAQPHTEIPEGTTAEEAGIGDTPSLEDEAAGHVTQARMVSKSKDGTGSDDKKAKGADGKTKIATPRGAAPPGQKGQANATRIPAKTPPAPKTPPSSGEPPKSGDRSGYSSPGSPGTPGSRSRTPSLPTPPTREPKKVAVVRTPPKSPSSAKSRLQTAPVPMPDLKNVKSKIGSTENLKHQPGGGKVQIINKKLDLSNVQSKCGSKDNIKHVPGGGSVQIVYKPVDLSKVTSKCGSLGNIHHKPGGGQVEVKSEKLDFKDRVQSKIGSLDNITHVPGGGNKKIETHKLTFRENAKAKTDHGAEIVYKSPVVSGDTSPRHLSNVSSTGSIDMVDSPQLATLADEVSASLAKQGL",
  "experiment": "Thioflavin S fluorescence displacement from synthetic htau40 filaments",
  "type": "binding",
  "data": [
    {"smiles": "COc1ccc2nc(/N=N/c3ccc(N(C)C)cc3)sc2c1", "note": "[N3, (E)-2-[[4-(dimethylamino)phenyl]azo]-6-methoxybenzothiazole]", "values": [
      {"measurement": "AC50", "value": "36 ± 6", "unit": "nM"}
    ]}
  ]
}
